Reference: publication doi:10.1101/2025.08.13.670037v1 (bioRxiv, 2025)
No end group written: not given here.

Experiment: Stability of peptide in human plasma
Type: in vitro ADME

## PVLDLFRELLNELLEALKQKLKPDWLKAFYDKVAEKLKEAF [22A-P-18A]
Human plasma, 24h incubation
  peptide lost, in sHDL particles: 15%
human, plasma, SD
  remaining at 24 h, 0.25 mg/mL: 73.6 ± 6.3%
